Experimental data published in US7173151B2, “Cycloalkyl-substituted alkanoic acid derivatives, processes for their preparation and their use as pharmaceuticals” (Sanofi-AventisDeutschand GmbH, priority 2003, dated 2007).

Target: T1, GR-GAL4-humanPPARalpha-LBD (Homo sapiens, UniProt Q07869)
T1 construct: amino acids S167–Y468; expressed in transfected cells; host or cells: HEK cells, stably transfected (pcDNA3, CMV promoter)
T1 sequence (Q07869 167-468): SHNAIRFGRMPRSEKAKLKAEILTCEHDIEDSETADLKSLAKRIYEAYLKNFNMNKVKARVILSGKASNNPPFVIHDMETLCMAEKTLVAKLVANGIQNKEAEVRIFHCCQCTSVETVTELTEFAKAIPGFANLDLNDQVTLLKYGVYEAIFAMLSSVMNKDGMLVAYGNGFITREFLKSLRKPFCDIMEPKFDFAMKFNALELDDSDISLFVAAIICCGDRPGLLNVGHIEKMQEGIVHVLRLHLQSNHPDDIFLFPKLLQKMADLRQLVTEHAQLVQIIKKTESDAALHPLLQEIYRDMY
Test: Cellular PPARalpha assay (luciferase reporter, stably transfected HEK cell line)
Assay type: cell-based
Protocol: Determination of EC50 Values of PPAR Agonists in the Cellular PPARalpha Assay
The potency of substances which bind to human PPARalpha and activate in an agonistic manner is analyzed using a stably transfected HEK cell line (HEK=human embryo kidney) which is referred to here as PPARalpha reporter cell line. It contains two genetic elements, a luciferase reporter element (pdeltaM-GAL4-Luc-Zeo) and a PPARalpha fusion protein (GR-GAL4-humanPPARalpha-LBD) which mediates expression of the luciferase reporter element depending on a PPARalpha ligand. The stably and constitutively expressed fusion protein GR-GAL4-humanPPARalpha-LBD binds in the cell nucleus of the PPARalpha reporter cell line via the GAL4 protein portion to the GAL4 DNA binding motifs 5′-upstream of the luciferase reporter element which is integrated in the genome of the cell line. There is only little expression of the luciferase reporter gene without addition of a PPARalpha ligand if fatty acid-depleted fetal calf serum (cs-FCS) is used in the assay. PPARalpha ligands bind and activate the PPARalpha fusion protein and thereby bring about expression of the luciferase reporter gene. The luciferase which is formed can be detected by means of chemiluminescence via an appropriate substrate.
The PPARalpha reporter cell line was prepared in 2 stages. Firstly, the luciferase reporter element was constructed and stably transfected into HEK cells. For this purpose, five binding sites of the yeast transcription factor GAL4 (each 5′-CGGAGTACTGTCCTCCGAG-3′) (SEQ ID No. 1) were cloned in 5′-upstream of a 68 bp-long minimal MMTV promoter (Genbank Accession #V01175). The minimal MMTV promoter section contains a CCAAT box and a TATA element in order to enable efficient transcription by RNA polymerase II. The cloning and sequencing of the GAL4-MMTV construct took place in analogy to the description of Sambrook J. et. al. (Molecular cloning, Cold Spring Harbor Laboratory Press, 1989). Then the complete Photinus pyralis gene (Genbank Accession #M15077) was cloned in 3′-downstream of the GAL4-MMTV element. After sequencing, the luceriferase reporter element consisting of five GAL4 binding sites, MMTV promoter and luciferase gene was recloned into a plasmid which confers zeocin resistance in order to obtain the plasmid pdeltaM-GAL4-Luc-Zeo. This vector was transfected into HEK cells in accordance with the statements in Ausubel, F. M. et al. (Current protocols in molecular biology, Vol. 1–3, John Wiley & Sons, Inc., 1995).
In a second step, the PPARalpha fusion protein (GR-GAL4-humanPPARalpha-LBD) was introduced into the stable cell clone described. For this purpose, initially the cDNA coding for the N-terminal 76 amino acids of the glucocorticoid receptor (Genbank Accession #P04150) was linked to the cDNA section coding for amino acids 1–147 of the yeast transcription factor GAL4 (Genbank Accession #P04386). The cDNA of the ligand-binding domain of the human PPARalpha receptor (amino acids S167–Y468; Genbank Accession #S74349) was cloned in at the 3′-end of this GR-GAL4 construct. The fusion construct prepared in this way (GR-GAL4-humanPPARalpha-LBD) was recloned into the plasmid pcDNA3 (from Invitrogen) in order to enable constitutive expression therein by the cytomegalovirus promoter. This plasmid was linearized with a restriction endonuclease and stably transfected into the previously described cell clone containing the luciferase reporter element. The finished PPARalpha reporter cell line which contains a luciferase reporter element and constitutively expresses the PPARalpha fusion protein (GR-GAL4-human PPARalpha-LBD) was isolated by selection with zeocin (0.5 mg/ml) and G418 (0.5 mg/ml).
The activity of PPARalpha agonists is determined in a 3-day assay which is described below: […]

| SMILES | EC50 [nM] |
| --- | --- |
| CCCCCCCN(CCOC1CCCC(CCC(C)(C)C(=O)O)C1)C(=O)NCCCC (racemic) [Example 9, 4-{cis-3-[2-(3-butyl-1-heptylureido)ethoxy]cyclohexyl)-2,2-dimethylbutyric acid] | 8.8 |
| CCCCCCCN(CCO[C@@H]1CCC[C@H](CCC(C)(C)C(=O)O)C1)C(=O)NC1CCCCC1 (racemic) [Example 11, 4-{cis-3-[2-(3-cyclohexyl-1-heptylureido)ethoxy]cyclohexyl}-2,2-dimethylbutyrate] | 28 |
| CCC(CCC1CCCC(OCCN(Cc2ccc(C)cc2)C(=O)NC2CCCCC2)C1)C(=O)O (racemic) [Example 1, 4-(cis-3-{2-[3-cyclohexyl-1-(4-methylbenzyl)ureido]ethoxy}cyclohexyl)-2-ethylbutyric acid] | 1.1 |
| CCCCCCCN(CCO[C@@H]1CCC[C@H](CCC(CC)C(=O)O)C1)C(=O)NCCCC (relative stereo) [Example 2, 4-{cis-3-[2-(3-butyl-1-heptylureido)ethoxy]cyclohexyl}-2-ethylbutyric acid] | 1 |

Other lines, results leading:

| EC50 [nM] | SMILES |
| --- | --- |
| 74 | CCCCNC(=O)N(CCO[C@@H]1CCC[C@H](CCC(C)(C)C(=O)O)C1)Cc1ccc(C)cc1 (relative stereo) [Example 10, 4-(cis-3-{2-[3-butyl-1-(4-methylbenzyl)ureido]ethoxy}cyclohexyl)-2,2-dimethylbutyric acid] |
| 0.38 | CCCCCCCN(CCO[C@@H]1CCC[C@H](CCC(C(=O)O)C(C)C)C1)C(=O)NCCCC (relative stereo) [Example 5, 2-(2-{cis-3-[2-(3-butyl-1-heptylureido)ethoxy]cyclohexyl}ethyl)-3-methylbutyric acid] |
| 0.56 | CCCCCCCN(CCO[C@@H]1CCC[C@H](CCC(CC)C(=O)O)C1)C(=O)NC1CCCCC1 (relative stereo) [Example 3, 4-{cis-3-[2-(3-cyclohexyl-1-heptylureido)ethoxy]cyclohexyl}-2-ethylbutyric acid] |
